Read-outs that look alike come from different tables or passages of the source.
Assays:
SNAP-mGluR2-R57A = biological target: T1, SNAP-mGluR2-R57A (Rattus norvegicus, UniProt P31421, R57A); experiment: GIRK activation assay, whole cell patch clamp, SNAP-mGluR2-R57A; assay type: cell-based
T1 construct: expressed in transfected cells; host or cells: HEK 293T
Procedure: (§1) Cells were cultured in DMEM with 5% FBS on poly-L-lysine-coated glass coverslips. DNA plasmids were transfected into cells using Lipofectamine 3000 (Thermo Fisher). […] For single-molecule pulldown (SiMPull) experiments, cells were transfected with 0.7 μg DNA of HA and SNAP-tagged receptor constructs, unless otherwise noted. For FRET experiments, cells were transfected with either SNAP-tagged constructs at 0.5–0.7 μg of DNA/well or SNAP and CLIP-tagged constructs at a ratio of 1:2 with 0.3 μg of SNAP DNA/well.
(§2) Whole-cell patch clamp recordings from single isolated cells were performed 24–36 hr after transfection in a high-potassium extracellular solution containing (in mM): 120 KCl, 29 NaCl, 1 MgCl2, 2 CaCl2 and 10 HEPES, pH 7.4. Cells were voltage clamped to −60 mV using an Axopatch 200B amplifier (Axon Instruments) and membrane currents were recorded. Glass pipettes of resistance between 3 and 8 MΩ were filled with intracellular solution containing (in mM): 140 KCl, 10 HEPES, 3 Na2ATP, 0.2 Na2GTP, 5 EGTA and 3 MgCl2, pH 7.4. Data were acquired with a 2 kHz acquisition rate and filtered with the amplifier 4-pole Bessel filter at 1 kHz. Drugs were prepared in extracellular solution and applied using a gravity-driven perfusion system. Data were analyzed with Clampfit (Molecular Devices) and Prism (GraphPad). Data for all conditions came from at least two separate transfections.

[1] = biological target: T2, isolated mGluR2 TMD (SNAP-mGluR2-TMD) (Rattus norvegicus, UniProt P31421); experiment: GIRK activation assay, whole cell patch clamp, isolated mGluR2 TMD; assay type: cell-based; settings: normalized to saturating LY48
T2 construct: mGluR2-TMD (rat) starts at Q558; expressed in transfected cells; host or cells: HEK 293T
Procedure: as §1, §2

full-length mGluR2 = biological target: T3, full-length mGluR2 (Rattus norvegicus, UniProt P31421); experiment: Calcium imaging assay, HEK cells with full-length mGluR2, GCaMP6f and Gαiq chimera; assay type: cell-based
T3 construct: HEK 293T cells expressing full-length mGluR2; expressed in transfected cells; host or cells: HEK 293T
Procedure: as §1
Experiments were conducted with continuous gravity-driven perfusion on an inverted microscope (Olympus IX73) and imaged with a 20x objective. […] Regions of interest were selected in Olympus cellSens software and represent single cells or small cell clusters (2–3 cells). Data analysis was performed in Microsoft Excel, where intensities were normalized to the baseline prior to drug application. Dose–response curves were fit using Prism (Graphpad) and data comes from at least two independent experiments for each LY48 concentration.

SNAP-mGluR2-TMD-N735D [2] = biological target: T4, SNAP-mGluR2-TMD-N735D (Rattus norvegicus, UniProt P31421, N735D); experiment: Inter-TMD FRET assay, N735D mutant; assay type: cell-based; settings: SNAP-mGluR2-TMD-N735D; normalized to saturating LY48; read-out: inter-TMD FRET increase EC50, N735D
T4 construct: Following SNAP tag, mGluR2 truncatd to position Q558; N at position 735 replaced with D; expressed in transfected cells; host or cells: HEK 293T
Procedure: (§3) Fluorophores were diluted in EX solution, which was also used to wash coverslips following labeling and prior to mounting on the microscope. After labeling, cells were mounted on an inverted microscope (Olympus IX73) and imaged with a 60x objective. […] Clusters of cells were analyzed together using ImageJ and FRET was calculated as FRET=(IAcceptor)/(IDonor +IAcceptor) where I is fluorescence intensity. No corrections were made for bleed-through between channels or the contribution of donor-donor or acceptor-acceptor dimers as analysis was limited to relative FRET changes between drug treatments rather than absolute FRET values. […] FRET changes calculated for dose–response curves were normalized to the response to saturating […] applied within the same recording and dose–response curves were obtained from multiple cell clusters and averaged from at least three separate experiments. Dose–response curves were fit using Prism (Graphpad). All drugs were purchased from Tocris, prepared in EX solution, and delivered with a gravity-driven perfusion system. For kinetics measurements a pressurized perfusion system (Automate Scientific) was used to produce a flow rate of 0.5 mL/s. Kinetic analysis was performed in Microsoft Excel. The time between 10% and 90% FRET increase or decrease was determined manually. […]

SNAP-mGluR2-TMD-N735D [3] = experiment: Inter-TMD FRET assay, N735D mutant; assay type: cell-based, Rattus norvegicus; settings: N735D compared to wild-type receptor
Procedure: as §3

mGluR2-N735D = biological target: T5, mGluR2-N735D (Rattus norvegicus, UniProt P31421, N735D); experiment: GIRK activation assay, whole cell patch clamp, mGluR2-N735D; assay type: cell-based; settings: relative to wild-type / saturating glutamate
T5 construct: expressed in transfected cells; host or cells: HEK 293T
Procedure: as §2

T1 sequence (P31421 19-872 R57A): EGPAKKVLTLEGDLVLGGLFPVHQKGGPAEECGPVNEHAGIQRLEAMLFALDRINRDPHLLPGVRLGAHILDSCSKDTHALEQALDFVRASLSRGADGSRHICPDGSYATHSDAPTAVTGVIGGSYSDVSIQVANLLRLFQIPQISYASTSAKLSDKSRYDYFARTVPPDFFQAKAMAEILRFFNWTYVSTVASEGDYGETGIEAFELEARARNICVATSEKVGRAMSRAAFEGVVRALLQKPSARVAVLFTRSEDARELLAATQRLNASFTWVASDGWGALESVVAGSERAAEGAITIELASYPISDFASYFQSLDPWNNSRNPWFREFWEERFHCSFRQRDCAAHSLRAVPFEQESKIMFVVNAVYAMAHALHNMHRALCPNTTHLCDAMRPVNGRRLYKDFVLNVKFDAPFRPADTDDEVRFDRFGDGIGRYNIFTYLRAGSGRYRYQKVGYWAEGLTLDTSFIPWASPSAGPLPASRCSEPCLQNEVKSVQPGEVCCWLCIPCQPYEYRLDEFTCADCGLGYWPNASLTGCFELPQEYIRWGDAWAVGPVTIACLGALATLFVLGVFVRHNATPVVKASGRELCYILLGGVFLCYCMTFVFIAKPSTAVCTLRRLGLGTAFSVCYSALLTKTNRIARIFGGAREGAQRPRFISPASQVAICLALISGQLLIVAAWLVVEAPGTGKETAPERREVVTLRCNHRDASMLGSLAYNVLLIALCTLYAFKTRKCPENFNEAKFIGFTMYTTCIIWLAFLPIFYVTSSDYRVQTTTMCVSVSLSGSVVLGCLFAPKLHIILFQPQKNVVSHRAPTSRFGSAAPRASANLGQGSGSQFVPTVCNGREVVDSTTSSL
T5 sequence (P31421 19-872 N735D): as the sequence (P31421 19-872 R57A) above, with A39R, N717D counted along it
T3 sequence (P31421 19-872): as the sequence (P31421 19-872 R57A) above, with A39R counted along it
T2 sequence (P31421 558-872 limits assumed): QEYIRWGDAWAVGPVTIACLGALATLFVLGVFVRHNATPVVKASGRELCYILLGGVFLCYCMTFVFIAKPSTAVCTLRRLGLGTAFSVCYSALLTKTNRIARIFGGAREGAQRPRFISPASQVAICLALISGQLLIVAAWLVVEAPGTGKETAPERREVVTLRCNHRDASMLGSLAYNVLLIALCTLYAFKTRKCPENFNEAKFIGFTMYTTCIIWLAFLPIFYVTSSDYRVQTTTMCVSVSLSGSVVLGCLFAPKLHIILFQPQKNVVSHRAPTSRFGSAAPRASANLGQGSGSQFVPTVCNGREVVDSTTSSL
T4 sequence (P31421 558-872 N735D): as the sequence (P31421 558-872 limits assumed) above, with N178D counted along it

## COc1ccccc1Oc1ccc(N(Cc2cccnc2)S(=O)(=O)CC(F)(F)F)cc1 [LY48]
SNAP-mGluR2-R57A; SNAP-mGluR2-R57A, normalized to saturating glutamate, mean ± s.e.m., read-out: GIRK activation EC50
  EC50: 0.29 ± 0.08 µM
SNAP-mGluR2-R57A; mGluR2-R57A, read-out: GIRK activation EC50 (approximate)
  EC50: ~0.3 µM
SNAP-mGluR2-R57A; mGluR2-R57A, relative to glutamate
  maximal PAM-induced GIRK activation relative to glutamate: ~ 70%
[1]
  EC50: 0.14 ± 0.01 µM
full-length mGluR2
  EC50: 1.2 ± 0.2 µM
SNAP-mGluR2-TMD-N735D [2]
  EC50: 20.5 ± 1.4 µM
SNAP-mGluR2-TMD-N735D [3]
  rightward shift of inter-TMD FRET dose-response curve, N735D versus wild-type: ~ 20 fold
mGluR2-N735D
  GIRK activation of mGluR2-N735D: drastically reduced activation
